Data published in patent publication US9855245B2, “Methods for improving lipid profiles using atrasentan” (AbbVie Inc., priority 2013, dated 2018).

What was measured:
[1] = system: subjects with type 2 diabetes and nephropathy; experiment: Example 4: combined data of Examples 1 and 2, statin / non-statin sub-populations, total and LDL cholesterol; type: in vivo, human; set-up: Total C, Mean Change / LDL, Mean Change: unit not given here
Protocol: A review of the data obtained from the studies detailed in Examples 1 and 2, above, with respect to total serum cholesterol and serum LDL cholesterol, indicated a meaningful reduction was achieved relative to baseline for both. For example, although the reduction in total serum cholesterol and serum LDL cholesterol for subjects receiving a 0.75 mg dose of atrasentan, after 12 weeks of therapy, varied, the average for both of the studies detailed in Examples 1 and 2 was approximately 14%. As a result, the data obtained from these studies as further reviewed subsequent to collection and a sub-population of subjects in each study was identified as receiving or taking a statin in combination with the atrasentan dose (either a 0.75 mg or 1.25 mg dose). The data relating to the impact of atrasentan on total serum cholesterol and serum LDL cholesterol from each study for this sub-population was combined and a new average (mean) baseline, as well as change relative thereto over the time period of the study, was calculated for each of the total serum cholesterol and serum LDL cholesterol. For purposes of comparison, data relating to the impact of atrasentan on total serum cholesterol and serum LDL cholesterol for each study for subjects that were not receiving or taking a statin was combined and a new average (mean) baseline, as well as change relative thereto over the time period of the study, was also calculated for each of the total serum cholesterol and serum LDL cholesterol.

[2] = system: subjects with type 2 diabetes and nephropathy; experiment: Example 1: Phase 2b randomized, double-blind, placebo-controlled 12-week clinical study
Protocol: The primary efficacy endpoint was the change from baseline to Week 12 in log-transformed UACR with the primary analysis conducted using mixed-effects, maximum likelihood, repeated measures (MMRM) with fixed effects for treatment, country, visit, and treatment-by-visit interaction, with baseline measurement and baseline-by-visit interaction as covariates.
All safety analyses were performed on treatment-emergent adverse events only. Treatment-emergent adverse events were defined as those that first occurred or worsened on or after the date of first dose of study drug through 30 days after the last dose of study drug.

[3] = subjects not receiving statins, 0.75 mg
[4] = subjects receiving statins and 0.75 mg of atrasentan

Structure (SMILES): CCCCN(CCCC)C(=O)CN1C[C@H](c2ccc3c(c2)OCO3)[C@@H](C(=O)O)[C@@H]1c1ccc(OC)cc1 [Atrasentan, (2R,3R,4S)-4-(1,3-benzodioxol-5-yl)-1-[2-(dibutylamino)-2-oxoethyl]-2-(4-methoxyphenyl)pyrrolidine-3-carboxylic acid]
- reduction in total serum cholesterol and serum LDL cholesterol relative to baseline, average for both studies (Examples 1 and 2) ([1]; 0.75 mg dose, after 12 weeks of therapy): approximately 14%
- LDL, % Change ([1]; Non-Statin, 0.75 mg): −13.1%
- LDL, Mean Change ([1]; Non-Statin, 0.75 mg): −13.4
- Total C, % Change ([1]; Non-Statin, 0.75 mg): −9.3%
- Total C, Mean Change ([1]; Non-Statin, 0.75 mg): −14.9
- LDL, % Change ([1]; Non-Statin, 1.25 mg): −18.8%
- LDL, Mean Change ([1]; Non-Statin, 1.25 mg): −21.0
- Total C, % Change ([1]; Non-Statin, 1.25 mg): −12.8%
- Total C, Mean Change ([1]; Non-Statin, 1.25 mg): −18.4
- LDL, % Change ([1]; Statin sub-population, 0.75 mg): −15.4%
- LDL, Mean Change ([1]; Statin sub-population, 0.75 mg): −12.8
- Total C, % Change ([1]; Statin sub-population, 0.75 mg): −10.4%
- Total C, Mean Change ([1]; Statin sub-population, 0.75 mg): −17.1
- LDL, % Change ([1]; Statin sub-population, 1.25 mg): −14.2%
- LDL, Mean Change ([1]; Statin sub-population, 1.25 mg): −11.6
- Total C, % Change ([1]; Statin sub-population, 1.25 mg): −10.4%
- Total C, Mean Change ([1]; Statin sub-population, 1.25 mg): −17.1
- reduction in LDL cholesterol [1, 3]: 13%
- reduction in total cholesterol [1, 3]: 9%
- reduction in LDL cholesterol [1, 4]: 15%
- reduction in total cholesterol [1, 4]: 10%
- Any adverse event ([2]; 0.75 mg, N = 59): 37 (62.7) N (%) of Subjects
- Any adverse event leading to discontinuation of study drug ([2]; 0.75 mg, N = 59): 5 (8.5) N (%) of Subjects
- Death ([2]; 0.75 mg, N = 59): 0 N (%) of Subjects
- Fatal adverse event ([2]; 0.75 mg, N = 59): 0 N (%) of Subjects
- Possibly or probably drug-related adverse event ([2]; 0.75 mg, N = 59): 16 (27.1) N (%) of Subjects
- Serious adverse event ([2]; 0.75 mg, N = 59): 4 (6.8) N (%) of Subjects
- Severe adverse event ([2]; 0.75 mg, N = 59): 5 (8.5) N (%) of Subjects
- Cholesterol, Difference (95% CI) from placebo ([2]; 0.75 mg/day): −14.1 (−28.65, 0.53) mg/dL
- Cholesterol, Final On-Treatment Visit Mean (SD) ([2]; 0.75 mg/day): 148.9 (36.93) mg/dL
- Cholesterol, LS Mean Change from Baseline (SE) ([2]; 0.75 mg/day): −13.0 (3.93) mg/dL
- HDL-C, Difference (95% CI) from placebo ([2]; 0.75 mg/day): 0.2 (−3.68, 4.13) mg/dL
- HDL-C, Final On-Treatment Visit Mean (SD) ([2]; 0.75 mg/day): 42.1 (12.06) mg/dL
- HDL-C, LS Mean Change from Baseline (SE) ([2]; 0.75 mg/day): −2.2 (1.05) mg/dL
- Had ≧30% Reduction in UACR and No Edema (no moderate or severe adverse event of edema) ([2]; 0.75 mg/day): 27 (47.4) Number (%) of Subjects
- Hemoglobin, Difference (95% CI) from placebo ([2]; 0.75 mg/day): −0.94 (−1.423, −0.450) g/dL
- Hemoglobin, LS Mean Change from Baseline (SE) ([2]; 0.75 mg/day): −0.97 (0.126) g/dL
- LDL-C, Difference (95% CI) from placebo ([2]; 0.75 mg/day): −12.5 (−23.56, −1.41) mg/dL
- LDL-C, Final On-Treatment Visit Mean (SD) ([2]; 0.75 mg/day): 71.4 (27.39) mg/dL
- LDL-C, LS Mean Change from Baseline (SE) ([2]; 0.75 mg/day): −10.3 (3.01) mg/dL
- Percentage of Subjects with ≧30% Reduction in Log-Transformed UACR from Baseline to Final Measurement ([2]; 0.75 mg/day): 50.9%
- Percentage of Subjects with ≧40% Reduction in Log-Transformed UACR from Baseline to Final Measurement ([2]; 0.75 mg/day): 38.6%
- Percentage of Subjects with ≧50% Reduction in Log-Transformed UACR from Baseline to Final Measurement ([2]; 0.75 mg/day): 29.8%
- Triglycerides, Difference (95% CI) from placebo ([2]; 0.75 mg/day): −37.6 (−97.24, 22.01) mg/dL
- Triglycerides, Final On-Treatment Visit Mean (SD) ([2]; 0.75 mg/day): 179.9 (101.27) mg/dL
- Triglycerides, LS Mean Change from Baseline (SE) ([2]; 0.75 mg/day): −4.3 (16.05) mg/dL
- Weight, Difference (95% CI) from placebo ([2]; 0.75 mg/day): −0.1 (−2.32, 2.07) kg
- Weight, Final On-Treatment Visit Mean (SD) ([2]; 0.75 mg/day): 93.0 (21.28) kg
- decrease in weight at Week 12 ([2]; 0.75 mg/day): 0.8 kg
- diastolic blood pressure, mean change from baseline to last on-treatment visit ([2]; 0.75 mg/day): −1.49 mmHg
- direct effect on change in UACR (path analysis vs change in systolic blood pressure) ([2]; 0.75 mg/day): 97.52%
- fatigue leading to discontinuation ([2]; 0.75 mg/day): 1.7%
- geometric mean reduction in UACR, baseline to final on-treatment measurement ([2]; 0.75 mg/day): 37.7%
- incidence of anemia ([2]; 0.75 mg/day): 6.8%
- incidence of peripheral edema ([2]; 0.75 mg/day): 32.2%
- mean changes in weight vs placebo (repeated-measures analysis) ([2]; 0.75 mg/day): statistically significantly different from placebo only at Week 2
- mean diastolic blood pressure, difference from baseline ([2]; 0.75 mg/day): statistically significant at Weeks 1, 4, and 6
- mean systolic blood pressure, difference from baseline ([2]; 0.75 mg/day): statistically significant at Week 4
- peripheral edema leading to discontinuation ([2]; 0.75 mg/day): 3.4%
- subjects discontinued because of an adverse event ([2]; 0.75 mg/day): 5 subjects
- subjects discontinued prematurely from the study ([2]; 0.75 mg/day): 13.6%
- subjects who discontinued study drug because of adverse events ([2]; 0.75 mg/day): 8.5%
